Assay [1] has as its system CD34+ cells from cord blood. Put plainly: Expansion of cord blood-derived CD34+ cells in culture, fold change days 1 to 7 (flow cytometry). Format: cell-based, human. To be noted: relative to vehicle control (DMSO), 3% oxygen. The protocol:
(§1) CD34+ cells from cord blood were purchased from STEMCELL Technologies. Primary human CD34+ cells were isolated by the supplier from cord blood samples using positive immunomagnetic separation techniques. Cells were thawed and gradually brought to room temperature. Samples were washed, then placed in overnight culture in StemSpan with 100 ng/ml each of FLT3L, TPO, SCF, and IL-6. Eighteen to twenty-four hours later (day 1), cells were counted and immunophenotyped (flow cytometry on an Invitrogen Attune N×T cytometer).
Approximately 1000 live cells were plated into each well of 96-well plates (total volume 200 μl); exact cell numbers dispensed per well were quantified with flow cytometry for later calculations.
Media for testing compounds of Formula I, except for compound 2.015, was prepared using StemSpan SFEM (STEMCELL Technologies). Media for testing compound 2.015 was prepared using Alpha-MEM without phenol red (Gibco) with 10% (v/v) heat inactivated fetal bovine serum (FBS). All other treatments are the same for all tested compounds. Culture conditions also included an antibiotic solution that includes penicillin, streptomycin, and amphotericin B to avoid contamination. Additional media components and concentrations used for the compounds tested are described in Table 2.
(§2) All incubations for this experiment took place at 3%˜ oxygen (controlled by nitrogen) and […]. Following seven days of culture, cells from wells were collected and phenotypes were analyzed (flow cytometry on an Invitrogen Attune N×T cytometer).
The graphs in FIG. 1-5 report the fold change in cells between days 1 and 7. Each point in the figures reports the average fold change of the indicated number of replicates at the noted concentration of the compound of Formula I tested. Error bars display the maximum and minimum fold change measured at that concentration. The dashed line reports the expansive effect of the base conditions (i.e. vehicle control).
Table 3, below, summarizes the relative expansive effects of Compounds 2.001 to 2.004 and 2.015 at the indicated concentration. It is calculated as shown below: […]

Assay [2] concerns HSCs derived from cord blood. Put plainly: Long-term (14 day) expansion of hematopoietic stem cells derived from cord blood. Type of assay: cell-based, human. The settings on record: 14 days in culture; Compound 2.001 at 10 μM, Compound 2.002 at 1 μM, Compound 2.003 at 10 μM. Here is the method: as §1, §2
Cells were cultured to seven days as described in Example 5. Following seven days in culture, 25% of cells from selected wells were passaged to 12-well plates (2 ml total volume), with conditions for these wells prepared as on day 1. Wells selected were: Compound 2.001 at 10 μM, Compound 2.002 at 1 μM, Compound 2.003 at 10 μM, and base conditions with vehicle control (DMSO). Cells were then allowed seven further days of expansion prior to analysis at day 14. Cell numbers calculated at day 14 account for the passaging of the cells at day seven.

Setting [3] is: 3.162 μM compound, StemSpan SFEM.
Where [4] appears, read: 2.819 μM compound, Alpha-MEM without phenol red with 10% FBS.

On to `CC(=O)Nc1ccc2c(c1)[nH]c1ccccc12` [Compound 2.001, N-(9H-carbazol-2-yl)acetamide], for which, in assay [1] (10 μM compound, StemSpan SFEM), the “CD34 effect (relative expansive effect on CD34+ cells)” value was “++++ (1.8 ≤ × < 2.2)” and the “CD90 effect (relative expansive effect on CD34+/CD133+/CD90+ cells)” value is “+++++ (2.2 ≤×)”. Also, the “expansion of HSCs from cord blood in extended culture” value (“expansion of HSCs from cord blood” below) in assay [2] is on record as “expand HSCs from cord blood for at least 14 days in culture”.
In the case of `CC(C)(C)C(=O)Nc1ccc2c(c1)[nH]c1ccccc12` [Compound 2.002, N-(9H-carbazol-2-yl)-2,2-dimethylpropanamide], in assay [1] (1 μM compound, StemSpan SFEM), the “CD34 effect (relative expansive effect on CD34+ cells)” value was “++++ (1.8 ≤ × < 2.2)” and the “CD90 effect (relative expansive effect on CD34+/CD133+/CD90+ cells)” value is given as “++++ (1.8 ≤ × < 2.2)”. Also, the “expansion of HSCs from cord blood” value in assay [2] is on record as “expand HSCs from cord blood for at least 14 days in culture”.
On to `CC(=O)Nc1ccc2c(c1)oc1ccccc12` [Compound 2.003, N-{8-oxatricyclo[7.4.0.0^2,7]trideca-1(13),2(7),3,5,9,11-hexaen-5-yl}acetamide], for which, in assay [1] (setting [3]), the “CD34 effect (relative expansive effect on CD34+ cells)” value was “++++ (1.8 ≤ × < 2.2)” and the “CD90 effect (relative expansive effect on CD34+/CD133+/CD90+ cells)” value is listed as “++++ (1.8 ≤ × < 2.2)”. For the same compound, the “expansion of HSCs from cord blood” value in assay [2] is given as “expand HSCs from cord blood for at least 14 days in culture”.
As to `CC(C)(C)C(=O)Nc1ccc2c(c1)oc1ccccc12` [Compound 2.004, 2,2-dimethyl-N-{8-oxatricyclo[7.4.0.0^2,7]trideca-1(13),2(7),3,5,9,11-hexaen-5-yl}propanamide], in assay [1] (1 μM compound, StemSpan SFEM), the “CD34 effect (relative expansive effect on CD34+ cells)” value is on record as “+++ (1.6 ≤ × < 1.8)” and the “CD90 effect (relative expansive effect on CD34+/CD133+/CD90+ cells)” value is given as “++ (1.2 ≤ × < 1.6)”.
Take `COc1cc2c(cc1N)oc1ccccc12` [Compound 2.015]: in assay [1] (setting [4]), the “CD34 effect (relative expansive effect on CD34+ cells)” value was “+ (1 < × < 1.2)” and the “CD90 effect (relative expansive effect on CD34+/CD133+/CD90+ cells)” value is listed as “+ (1 < × < 1.2)”.

For the origin of these results see patent publication US20220378740A1, “COMPOSITIONS AND METHODS OF MAKING EXPANDED HEMATOPOIETIC STEM CELLS USING DERIVATIVES OF CARBAZOLE” (Transfusion Health, LLC, priority 2019, published 2022).
